Measurements: ChEMBL document CHEMBL1145569, “Design, synthesis, and evaluation of inhibitors of cathepsin L: Exploiting a unique thiocarbazate chemotype” (Bioorg Med Chem Lett, 2008)
Calls of active or inactive are those of the source. The rule behind the calls is not given here.

The molecules below were run against Procathepsin L (Homo sapiens, UniProt P07711) (assay: Inhibition of human cathepsin L).
CC(C)(C)OC(=O)N[C@@H](Cc1c[nH]c2ccccc12)C(=O)NNC(=O)SC1CCN(c2ccccc2)C1=O (some centres undefined) showed an IC50 of 110 nM.
In the case of CC(C)(C)OC(=O)N[C@@H](Cc1c[nH]c2ccccc12)C(=O)NNC(=O)NCC(=O)N1CCCc2ccccc21, the IC50 is reported as 3000 nM.
CCc1ccccc1NC(=O)CSC(=O)NNC(=O)CNC(=O)OC(C)(C)C was tested, and the Activity was “inactive”.
In the case of CCc1ccccc1NC(=O)CSC(=O)NNC(=O)CCc1c[nH]c2ccccc12, the IC50 is reported as 21800 nM.
In the case of COC(=O)CSC(=O)NNC(=O)[C@H](Cc1c[nH]c2ccccc12)NC(=O)OC(C)(C)C, the IC50 is reported as 201 nM.
CCc1ccccc1NC(=O)CSC(=O)NNC(=O)[C@H](Cc1ccccc1)NC(=O)OC(C)(C)C showed an IC50 of 115 nM.
CC(C)(C)OC(=O)N[C@@H](Cc1c[nH]c2ccccc12)C(=O)NNC(=O)SCC(=O)N1CCCc2ccccc21 gave an IC50 of 41 nM.
With CC(C)(C)OC(=O)N[C@@H](Cc1c[nH]c2ccccc12)C(=O)NNC(=O)OCC(=O)N1CCCc2ccccc21 the IC50 was 7 nM.
For CC(C)(C)OC(=O)N[C@@H](Cc1c[nH]c2ccccc12)C(=O)NNC(=O)CCC(=O)N1CCCc2ccccc21, the Activity was “inactive”.
